Data from the supplement of paper PMC10307832.

Assays:
Assay in all cases: relative viability (nuclei count vs DMSO), 5 days (fraction); higher = more cells survive
kb NB 142-70 = compound: C1CSC2=C(C(=O)N1)SC3=C2C=C(C=C3)O [kb NB 142-70]
Procedure, shortened: (§1)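 Lung cancer cell lines in 1536-well plates were exposed by pinning to five library-drug doses (not always all listed) √10 apart, following an overnight hold at 37 °C. MetaXpress counted Hoechst-stained nuclei from 4× images taken after 5 days without medium change. Viability is the median ratio of treated-well to vehicle-well nuclei across plates. Plates required control CV below 25% and at least one doubling.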

[1] = compound: NCC(=O)Nc1ccc(-n2nc(C(F)(F)F)cc2-c2ccc3c(ccc4ccccc43)c2)cc1
Procedure, shortened: as §1

kb NB 142-70 + Alpelisib = compound: C1CSC2=C(C(=O)N1)SC3=C2C=C(C=C3)O [kb NB 142-70] + Cc1nc(NC(=O)N2CCC[C@H]2C(N)=O)sc1-c1ccnc(C(C)(C)C(F)(F)F)c1 [Alpelisib] (partner 2 µM)
Procedure, shortened: (§2)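 Relative viability equals treated-well nuclei counts divided by vehicle-well nuclei counts. Counts came from 4× images of lung cancer cell lines grown in 1536-well plates for 5 days after pin-tool dosing on the day after seeding. Dosing used one drug alone or a fixed anchor-drug dose plus five library-drug doses (not always all listed) in √10 steps, and values are medians of duplicate plates.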

[2] = compound: NCC(=O)Nc1ccc(-n2nc(C(F)(F)F)cc2-c2ccc3c(ccc4ccccc43)c2)cc1 + Nc1nc2[nH]cc(CCc3ccc(C(=O)N[C@@H](CCC(=O)O)C(=O)O)cc3)c2c(=O)[nH]1 [Pemetrexed] (partner 0.2 µM)
Procedure, shortened: as §2

Cell Line | relative viability (kb NB 142-70; 0.1 µM) | relative viability (kb NB 142-70; 1 µM) | relative viability (kb NB 142-70; 3.162 µM) | relative viability ([1]; 0.02 µM) | relative viability ([1]; 0.06325 µM) | relative viability ([1]; 0.2 µM) | relative viability ([1]; 0.6325 µM) | relative viability ([1]; 2 µM) | relative viability (kb NB 142-70 + Alpelisib; first compound 0.1 µM) | relative viability (kb NB 142-70 + Alpelisib; first compound 1 µM) | relative viability (kb NB 142-70 + Alpelisib; first compound 3.162 µM) | relative viability ([2]; first compound 0.02 µM) | relative viability ([2]; first compound 0.06325 µM) | relative viability ([2]; first compound 0.2 µM) | relative viability ([2]; first compound 0.6325 µM) | relative viability ([2]; first compound 2 µM)
NCI-H358 | 0.943 | 0.725 | 0.137 | 0.965 | 0.993 | 0.925 | 0.939 | 0.94 | 0.885 | 0.578 | 0.131 | 0.168 | 0.164 | 0.179 | 0.193 | 0.185
NCI-H441 | 0.975 | 0.967 | 0.637 | 0.977 | 1.04 | 1.28 | 0.947 | 0.956 | 0.92 | 0.62 | 0.484 | 0.253 | 0.279 | 0.273 | 0.259 | 0.243
NCI-H460 | 1.01 | 0.99 | 0.979 | 0.974 | 0.995 | 1 | 0.987 | 0.976 | 0.521 | 0.435 | 0.244 | 0.0659 | 0.064 | 0.0588 | 0.0727 | 0.0577
NCI-H520 | 0.985 | 0.884 | 0.544 | 1.01 | 1.04 | 1.1 | 0.933 | 1.05 | 0.728 | 0.961 | 0.513 | 0.676 | 0.716 | 0.761 | 0.661 | 0.623
NCI-H596 | 1.02 | 1.1 | 0.981 | 1.12 | 1.11 | 1.06 | 0.992 | 0.945 | 0.454 | 0.483 | 0.347 | 0.521 | 0.455 | 0.548 | 0.494 | 0.441
NCI-H647 | 1.01 | 1.03 | 0.99 | 0.934 | 1.03 | 1.07 | 0.943 | 0.897 | 1.1 | 1.43 | 0.698 | 0.172 | 0.182 | 0.205 | 0.203 | 0.202
NCI-H650 | 1.02 | 0.906 | 0.825 | 0.866 | 0.977 | 0.981 | 0.866 | 1.02 | 1.13 | 1.19 | 0.942 | 0.907 | 0.9 | 0.896 | 0.872 | 0.913
NCI-H661 | 0.969 | 0.934 | 0.919 | 1.03 | 0.96 | 0.973 | 0.963 | 1.02 | 0.812 | 0.526 | 0.613 | 0.882 | 0.954 | 0.929 | 0.915 | 0.907
NCI-H838 | 0.965 | 0.961 | 0.963 | 0.958 | 0.998 | 1 | 0.909 | 0.864 | 1.02 | 1.06 | 0.91 | 0.259 | 0.25 | 0.253 | 0.232 | 0.284
NCI-H1355 | 1.02 | 0.885 | 1.01 | 0.971 | 1.07 | 0.883 | 1.02 | 0.995 | 0.924 | 0.86 | 0.822 | 1.06 | 1.09 | 1.07 | 0.963 | 1.02
NCI-H1395 | 1.01 | 0.963 | 0.601 | 0.941 | 0.983 | 0.755 | 0.858 | 1 | 1.29 | 1.15 | 0.66 | 0.876 | 0.896 | 0.969 | 0.8 | 0.894
NCI-H1437 | 0.986 | 1 | 0.975 | 0.975 | 1.05 | 0.957 | 1.01 | 0.946 | 1.01 | 0.999 | 0.875 | 0.309 | 0.335 | 0.35 | 0.316 | 0.308
NCI-H1563 | 1.04 | 1.02 | 1 | 0.992 | 0.954 | 0.997 | 1.02 | 0.968 | 0.963 | 0.967 | 0.932 | 0.801 | 0.81 | 0.702 | 0.722 | 0.737
NCI-H1651 | 1.02 | 0.975 | 0.821 | 1 | 0.947 | 0.978 | 0.956 | 0.998 | 0.938 | 0.934 | 0.364 | 0.588 | 0.34 | 0.577 | 0.603 | 0.608
NCI-H1666 | 0.951 | 1.01 | 0.922 | 1.05 | 0.986 | 1.01 | 0.961 | 0.987 | 0.805 | 1.01 | 0.632 | 0.947 | 0.881 | 0.87 | 0.851 | 0.878
NCI-H1734 | 1.04 | 0.774 | 0.517 | 0.931 | 1.06 | 0.955 | 0.966 | 0.928 | 0.659 | 0.607 | 0.46 | 0.406 | 0.457 | 0.442 | 0.442 | 0.384
NCI-H1755 | 0.988 | 0.986 | 1.02 | 1.01 | 1.03 | 1.04 | 0.966 | 0.986 | 0.968 | 0.915 | 0.929 | 0.69 | 0.509 | 0.453 | 0.394 | 0.434

Cell Line | relative viability (kb NB 142-70; 0.1 µM) | relative viability (kb NB 142-70; 1 µM) | relative viability (kb NB 142-70; 3.162 µM) | relative viability ([1]; 0.02 µM) | relative viability ([1]; 0.06325 µM) | relative viability ([1]; 0.2 µM) | relative viability ([1]; 0.6325 µM) | relative viability ([1]; 2 µM) | relative viability (kb NB 142-70 + Alpelisib; first compound 0.1 µM) | relative viability (kb NB 142-70 + Alpelisib; first compound 1 µM) | relative viability (kb NB 142-70 + Alpelisib; first compound 3.162 µM) | relative viability ([2]; first compound 0.02 µM) | relative viability ([2]; first compound 0.06325 µM) | relative viability ([2]; first compound 0.2 µM) | relative viability ([2]; first compound 0.6325 µM) | relative viability ([2]; first compound 2 µM)
NCI-H1792 | 0.928 | 0.937 | 0.915 | 1.05 | 0.812 | 0.875 | 0.95 | 0.911 | 0.778 | 0.732 | 0.891 | 0.943 | 1.07 | 0.802 | 0.943 | 0.872
NCI-H1793 | 0.911 | 1.11 | 0.863 | 0.984 | 1.08 | 0.86 | 0.915 | 1.08 | 0.589 | 0.711 | 0.636 | 0.907 | 1.01 | 0.827 | 0.949 | 0.891
NCI-H1915 | 1.04 | 0.978 | 0.742 | 0.86 | 1.02 | 0.978 | 0.963 | 0.989 | 1.07 | 1.08 | 0.648 | 0.452 | 0.503 | 0.477 | 0.575 | 0.467
NCI-H1944 | 1.08 | 0.978 | 1.07 | 0.822 | 0.973 | 0.966 | 0.965 | 0.899 | 0.874 | 0.817 | 0.853 | 0.609 | 0.731 | 0.642 | 0.553 | 0.575
NCI-H1975 | 0.902 | 0.982 | 0.656 | 0.91 | 0.887 | 1.03 | 0.972 | 1.03 | 0.665 | 0.604 | 0.344 | 0.309 | 0.293 | 0.291 | 0.282 | 0.278
NCI-H1993 | 1.03 | 0.857 | 0.716 | 0.934 | 1.1 | 1.05 | 1 | 1.04 | 0.761 | 0.654 | 0.555 | 0.579 | 0.504 | 0.59 | 0.628 | 0.599
NCI-H2009 | 1.06 | 1.07 | 0.788 | 0.952 | 1.02 | 1.07 | 1 | 1.05 | 1.04 | 1.2 | 0.72 | 1.03 | 1.01 | 1.08 | 1.05 | 1.04
NCI-H2023 | 1.07 | 0.946 | 0.642 | 0.952 | 1.06 | 0.957 | 1.06 | 0.922 | 0.619 | 0.602 | 0.531 | 0.226 | 0.249 | 0.256 | 0.224 | 0.239
NCI-H2085 | 0.964 | 0.952 | 0.712 | 0.961 | 1.01 | 1.03 | 0.982 | 1.01 | 0.869 | 0.901 | 0.658 | 0.831 | 0.967 | 0.92 | 0.892 | 1.01
NCI-H2087 | 1.04 | 1.29 | 0.951 | 0.978 | 1.09 | 1.1 | 1.08 | 1.02 | 1.16 | 1.22 | 0.858 | 0.619 | 0.685 | 0.681 | 0.639 | 0.718
NCI-H2126 | 0.985 | 0.974 | 0.989 | 0.981 | 1.04 | 1.04 | 0.993 | 0.997 | 0.748 | 0.763 | 0.758 | 0.667 | 0.714 | 0.736 | 0.724 | 0.69
NCI-H2170 | 0.965 | 1.02 | 0.825 | 0.985 | 0.974 | 0.967 | 0.949 | 0.997 | 0.76 | 0.852 | 0.561 | 0.251 | 0.262 | 0.239 | 0.265 | 0.269
NCI-H2228 | 1.04 | 1.33 | 0.699 | 1 | 1.04 | 1.1 | 1.03 | 0.797 | 0.7 | 0.729 | 0.494 | 0.375 | 0.354 | 0.377 | 0.358 | 0.398
NCI-H2347 | 1.05 | 1.02 | 0.949 | 0.99 | 1.06 | 1.16 | 1.11 | 1.07 | 0.963 | 1.09 | 1.01 | 0.403 | 0.421 | 0.409 | 0.432 | 0.496
NCI-H2405 | 0.985 | 0.995 | 0.7 | 1 | 1.02 | 1.09 | 0.961 | 1.06 | 0.743 | 0.802 | 0.723 | 1.04 | 1.04 | 1.26 | 1.04 | 1.16
NCI-H3122 | 0.962 | 0.982 | 0.969 | 1.01 | 1.02 | 1.01 | 1.01 | 1 | 0.828 | 0.7 | 0.442 | 0.194 | 0.208 | 0.204 | 0.187 | 0.241
